Measured values published in patent US10023602B2, “Hamamelitannin analogues and uses thereof” (Universiteit Gent, priority 2014, dated 2018).
pEC50: −log10 of the molar value.

Legend:
[1] = tested on: methicillin resistant S. aureus Mu50 strain (S. aureus ATCC700699) biofilm; test: Biofilm susceptibility to vancomycin, pre-treatment regimen (biofilm formed in presence of compound, then vancomycin); type: cell-based; conditions: for Pretreat (100 μM): percentage Colony Forming Units (CFU's) per biofilm: compound 100 μM during biofilm formation; for pEC50: concentration needed to get 50% killing compared to antibiotic alone (VAN 20 μg/ml) and complete killing, read-out: Pretreat. (EC50)
Procedure, shortened: (§1)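 Mu50 biofilms from 10^8 CFU/ml inoculum (4 h adhesion, then 20 h, 37 °C). Pre-treatment: compound (0.1-250 μM) present during biofilm formation, then vancomycin 20 μg/ml alone 24 h; combination: mature biofilm given vancomycin 20 μg/ml plus compound 24 h. Survivors counted by plating versus vancomycin alone.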

[2] = tested on: methicillin resistant S. aureus Mu50 strain (S. aureus ATCC700699) biofilm; test: Biofilm susceptibility to vancomycin, combination treatment regimen (mature biofilm treated with compound plus vancomycin); type: cell-based; conditions: for Combin. (100 μM): percentage Colony Forming Units (CFU's) per biofilm: compound 100 μM together with VAN 20 μg/ml on mature biofilm; for pEC50: concentration needed to get 50% killing compared to antibiotic alone (VAN 20 μg/ml) and complete killing, read-out: Combin. (EC50)
Procedure, shortened: as §1

[3] = then VAN 20 μg/ml, compared to the untreated (negative) control
[4] = compared to the untreated (negative) control

SMILES	Pretreat (100 μM): percentage Colony Forming Units (CFU's) per biofilm [1, 3] [percentage]	Combin. (100 μM): percentage Colony Forming Units (CFU's) per biofilm [2, 4] [percentage]	pEC50 [1]	pEC50 [2]	Pretreat. (25 μM): percentage Colony Forming Units (CFU's) per biofilm ([1]; compound 25 μM during biofilm formation, then VAN 20 μg/ml, compared to the untreated (negative) control) [percentage]	Combin. (25 μM): percentage Colony Forming Units (CFU's) per biofilm ([2]; compound 25 μM together with VAN 20 μg/ml on mature biofilm, compared to the untreated (negative) control) [percentage]
O=C(NC[C@H]1OC[C@@](O)(CNC(=O)c2ccccc2)[C@@H]1O)c1cncnc1 [compound 205, N-(((2R,3R,4S)-4-(benzamidomethyl)-3,4-dihydroxytetrahydrofuran-2-yl)methyl)pyrimidine-5-carboxamide]	6.699	16.51	–	–	–	–
Cc1ccc(S(=O)(=O)NC[C@H]2OC[C@@](O)(CNC(=O)c3ccccc3)[C@@H]2O)cc1 [compound 216, N-(((3S,4R,5R)-3,4-dihydroxy-5-(((4-methylphenyl)sulfonamido)methyl)tetrahydrofuran-3-yl)methyl)benzamide]	16.96	25.95	–	–	–	–
O=C(NC[C@H]1OC[C@@](O)(CNC(=O)c2ccccc2)[C@@H]1O)c1ccc(Cl)cc1 [compound 153, N-(((2R,3R,4S)-4-(benzamidomethyl)-3,4-dihydroxytetrahydrofuran-2-yl)methyl)-4-chlorobenzamide]	9.185	8.577	4.74	4.67	–	–
COc1cccc(C(=O)NC[C@H]2OC[C@@](O)(CNC(=O)c3ccccc3)[C@@H]2O)c1 [compound 163, N-(((2R,3R,4S)-4-(benzamidomethyl)-3,4-dihydroxytetrahydrofuran-2-yl)methyl)-3-methoxybenzamide]	28.44	27.21	–	–	–	–
O=C(NC[C@]1(O)CO[C@H](CNC(=O)c2ccccc2I)[C@H]1O)c1ccccc1 [compound 179, N-(((2R,3R,4S)-4-(benzamidomethyl)-3,4-dihydroxytetrahydrofuran-2-yl)methyl)-2-iodobenzamide]	3.84	16.46	5.73	4.69	–	–
O=C(NC[C@]1(O)CO[C@H](CNC(=O)c2ccccc2Cl)[C@H]1O)c1ccncc1 [compound 239, N-(((3S,4R,5R)-5-((2-chlorobenzamido)methyl)-3,4-dihydroxytetrahydrofuran-3-yl)methyl)isonicotinamide]	–	–	–	–	49.98	58.76
O=C(NC[C@]1(O)CO[C@H](CNS(=O)(=O)c2ccccc2Cl)[C@H]1O)c1ccccc1 [compound 218, N-(((3S,4R,5R)-5-(((2-chlorophenyl)sulfonamido)methyl)-3,4-dihydroxytetrahydrofuran-3-yl)methyl)benzamide]	35.03	26.88	–	–	–	–
O=C(NC[C@H]1OC[C@@](O)(CNC(=O)c2ccccc2)[C@@H]1O)c1ccc(Cl)nc1 [compound 202, N-(((2R,3R,4S)-4-(benzamidomethyl)-3,4-dihydroxytetrahydrofuran-2-yl)methyl)-6-chloronicotinamide]	14.00	18.24	–	–	–	–
O=C(NC[C@]1(O)CO[C@H](CNC(=O)c2cccnn2)[C@H]1O)c1ccccc1 [compound 206, N-(((2R,3R,4S)-4-(benzamidomethyl)-3,4-dihydroxytetrahydrofuran-2-yl)methyl)pyridazine-3-carboxamide]	6.460	15.17	–	–	–	–
O=C(NC[C@]1(O)CO[C@H](CNC(=O)c2cnccn2)[C@H]1O)c1ccccc1 [compound 208, N-(((2R,3R,4S)-4-(benzamidomethyl)-3,4-dihydroxytetrahydrofuran-2-yl)methyl)pyrazine-2-carboxamide]	10.52	18.77	–	–	–	–
O=C(NC[C@H]1OC[C@@](O)(CNC(=O)c2ccccc2)[C@@H]1O)c1cccc(F)c1 [compound 161, N-(((2R,3R,4S)-4-(benzamidomethyl)-3,4-dihydroxytetrahydrofuran-2-yl)methyl)-3-fluorobenzamide]	9.353	16.57	–	–	–	–
O=C(NC[C@]1(O)CO[C@H](CNC(=O)c2ccccc2Cl)[C@H]1O)c1ccc(-c2ccccc2)cc1 [compound 252, N-(((3S,4R,5R)-5-((2-chlorobenzamido)methyl)-3,4-dihydroxytetrahydrofuran-3-yl)methyl)-[1,1′-biphenyl]-4-carboxamide]	2.25	29.40	4.93	4.16	–	–
O=C(NC[C@]1(O)CO[C@H](CNC(=O)c2ccccc2F)[C@H]1O)c1ccccc1 [compound 170, N-(((2R,3R,4S)-4-(benzamidomethyl)-3,4-dihydroxytetrahydrofuran-2-yl)methyl)-2-fluorobenzamide]	11.84	16.30	–	–	–	–
O=C(NC[C@]1(O)CO[C@H](Cn2nncc2-c2ccccc2)[C@H]1O)c1ccccc1 [compound 222, N-(((3S,4R,5R)-3,4-dihydroxy-5-((5-phenyl-1H-1,2,3-triazol-1-yl)methyl)tetrahydrofuran-3-yl)methyl)benzamide]	47.10	73.90	–	–	–	–
CN(C)c1ccc(C(=O)NC[C@H]2OC[C@@](O)(CNC(=O)c3ccccc3)[C@@H]2O)cc1 [compound 156, N-(((2R,3R,4S)-4-(benzamidomethyl)-3,4-dihydroxytetrahydrofuran-2-yl)methyl)-4-(dimethylamino)benzamide]	16.58	11.27	–	–	–	–
O=C(NC[C@]1(O)CO[C@H](CNC(=O)c2c(Cl)cncc2Cl)[C@H]1O)c1ccccc1 [compound 195, N-(((2R,3R,4S)-4-(benzamidomethyl)-3,4-dihydroxytetrahydrofuran-2-yl)methyl)-3,5-dichloroisonicotinamide]	18.31	18.55	5.14	5.03	–	–
O=C(NC[C@]1(O)CO[C@H](CNC(=O)C2CCCCC2)[C@H]1O)c1ccccc1 [compound 191, N-(((3S,4R,5R)-5-(cyclohexanecarboxamidomethyl)-3,4-dihydroxytetrahydrofuran-3-yl)methyl)benzamide]	32.28	19.28	–	–	–	–
O=C(CCc1ccccc1)NC[C@H]1OC[C@@](O)(CNC(=O)c2ccccc2)[C@@H]1O [compound 190, N-(((3S,4R,5R)-3,4-dihydroxy-5-((3-phenylpropanamido)methyl)tetrahydrofuran-3-yl)methyl)benzamide]	64.43	29.24	–	–	–	–
O=C(NC[C@]1(O)CO[C@H](CNC(=O)c2ccncn2)[C@H]1O)c1ccccc1 [compound 204, N-(((2R,3R,4S)-4-(benzamidomethyl)-3,4-dihydroxytetrahydrofuran-2-yl)methyl)pyrimidine-4-carboxamide]	13.04	15.85	–	–	–	–
O=C(NC[C@H]1OC(O)[C@@](O)(CNC(=O)c2cccc(O)c2)[C@@H]1O)c1cccc(O)c1 (stereo partly drawn) [compound 19, N,N′-(((2R,3R,4R)-3,4,5-trihydroxytetrahydrofuran-2,4-diyl)bis(methylene))bis(3-hydroxybenzamide)]	19.78	27.23	4.41	4.28	–	–
O=C(NC[C@H]1OC(O)[C@@](O)(CNC(=O)c2ccc(O)c(O)c2)[C@@H]1O)c1ccc(O)c(O)c1 (stereo partly drawn) [compound 17, N,N′-(((2R,3R,4R)-3,4,5-trihydroxytetrahydrofuran-2,4-diyl)bis(methylene))bis(3,4-dihydroxybenzamide)]	55.76	61.16	3.74	3.77	–	–
Cc1ccc(C(=O)NC[C@H]2OC[C@@](O)(CNC(=O)c3ccccc3)[C@@H]2O)cc1C [compound 180, N-(((2R,3R,4S)-4-(benzamidomethyl)-3,4-dihydroxytetrahydrofuran-2-yl)methyl)-3,4-dimethylbenzamide]	79.13	65.66	–	–	–	–
O=C(NC[C@]1(O)CO[C@H](CNC(=O)c2cnccc2Cl)[C@H]1O)c1ccccc1 [compound 201, N-(((2R,3R,4S)-4-(benzamidomethyl)-3,4-dihydroxytetrahydrofuran-2-yl)methyl)-4-chloronicotinamide]	51.81	74.81	3.70	< 3.60	–	–
